Values of other authors in US20130345262A1, “METHOD FOR PREVENTION OF STROKE” (BOEHRINGER INGELHEIM INTERNATIONAL GMBH, priority 2012, published 2013).

Tested on: patients who have nonvalvular atrial fibrillation
Details: patients with nonvalvular atrial fibrillation

Q: For CC(=O)CC(c1ccccc1)c1c(O)c2ccccc2oc1=O (racemic) [warfarin, 3-(α-acetonylbenzyl)4-hydroxycoumarin], which “reduction of the risk of stroke compared to placebo” value is on record?
A: about 64%
